From patent publication US8278290B2, “Tubulin polymerisation inhibitors” (Biononics Limited, priority 2005, dated 2012) come the findings set out here.

One assay deals with MDA-MB-231 tumour. As to the kind of experiment: MDA-MB-231 tumour growth in mice. The note with it: 35 mg/kg/d (35 mg/kg/d for 3 days then 17.5 mg/kg/d for 3 days then none); 5 mice per group; FIG. 1. Format: in vivo. The method, then: The effect of 35 mg/kg/d CA4-P, compound entry 8, compound entry 9, compound entry 10 and compound entry 23 (administered at 35 mg/kg/d for 3 days then 17.5 mg/kg/d for 3 days then none) on MDA-MB-231 tumour growth is summarised in FIG. 1.
The effect of CA4-P and test compounds and saline on MDA-MB-231 tumour growth. Each group consisted of 5 mice. The data represent the mean tumour volume; bars SEM.

The test system of a further assay is Tubulin. As to the kind of experiment: Inhibition of tubulin polymerisation. Format: biochemical. The note with it: tubulin concentration 10 μM; extent of assembly after 20 min incubation at 30° C.; read-out: Inhib. Tubulin polymerisation IC50.
The test system of another assay is MCF-7, cancer cell line. Nature of the assay: MCF-7 growth inhibition (SRB or Sysmex cell counting). The assay is classed as cell-based. The note with it: SRB or CC assay.
In assay [1] the test system is Human umbilical vein endothelial cells. As to the kind of experiment: Proliferation Assay - activated endothelium (MTT). Conditions: HUVEC, range within which the IC50 value falls, 48 hrs culture, read-out: Inhib activated HUVECs IC50. The assay is classed as cell-based. The method, then: Proliferation Assay—activated endothelium: Human umbilical vein endothelial cells (CC-2519, Clonetics) were plated at 2500 cells/well in EGM2 (CC-3162, Clonetics) in a 96 well plate in triplicate. Cells were cultured overnight at 37° C. 5% CO2. Medium was subsequently replaced with fresh medium including the compound or negative control. Cells were cultured for a period of 48 hrs. An MTT assay was performed to measure changes in cell numbers. Briefly, 20 μl of MTT reagent was added to cells containing 100 μl of EGM2 and incubated at 37° C. for 2 hours. Absorbance was measured at 492 nm.

In another assay the test system is MDA-MB-231. Nature of the assay: MDA-MB-231 growth inhibition (footnote b). Conditions: Homo sapiens; entries 59-60: cell line MDA-MB-231; range within which the IC50 value falls; read-out: cancer cell line IC50 (MDA-MB-231). The assay is classed as cell-based.
The mark [2] stands for this setting: Homo sapiens, MCF7, concentration required to inhibit net cell growth by 50%.
The mark [3] stands for this setting: concentration required to inhibit net cell growth by 50%.

On to `COc1ccc(/C=C\c2cc(OC)c(OC)c(OC)c2)cc1OP(=O)([O-])[O-].[Na+].[Na+]` [CA4-P, combretastatin A4 disodium phosphate, reference compound], for which, in the assay on MDA-MB-231 tumour, the “effect on MDA-MB-231 tumour growth” value is listed as “effectively inhibited”.

For the compound `COc1ccc(-c2oc3c(O)c(OC)ccc3c2C(=O)c2cc(OC)c(OC)c(OC)c2)cc1` [Entry 4, reference compound], the IC50 in the assay on Tubulin was 1500 ± 400 nM; in the assay on MCF-7, cancer cell line (setting [2]) it was 1 to 2 nM.

As for `COc1ccc(-c2oc3c(O)c(OC)ccc3c2C(=O)c2cc(OC)c(OC)c(OC)c2)cc1O` [Entry 5, reference compound], the IC50 with Tubulin is below 4000 nM; in the assay with MCF-7, cancer cell line (setting [2]) it was 3.9 nM; with MCF-7, cancer cell line (setting [3]) it was 4.1 nM.

Regarding `COc1ccc2c(C(=O)c3cc(OC)c(OC)c(OC)c3)coc2c1` [Entry 6, reference compound], the IC50 in the assay on Tubulin came to 1600 ± 200 nM; in the assay with MCF-7, cancer cell line (setting [2]) it was 60 nM; in the assay on MCF-7, cancer cell line (setting [3]), 50 nM.

As to `COc1ccc2c(C(=O)c3cc(OC)c(OC)c(OC)c3)c(-c3ccc(OC)nc3)oc2c1` [Entry 11, 2-(6-Methoxy-pyridin-3-yl)-3-(3,4,5-trimethoxybenzoyl)-6-methoxy-benzofuran], the IC50 with Tubulin is below 4000 nM; with MCF-7, cancer cell line (setting [2]), 70 nM; with MCF-7, cancer cell line (setting [3]), 72 nM; in assay [1] it was 10 to 100 nM.

For `COc1ccc2c(C(=O)c3cc(OC)c(OC)c(OC)c3)c(-c3cnn(C)c3)oc2c1` [Entry 12, 6-Methoxy-2-(1-methyl-1H-pyrazol-4-yl)-3-(3,4,5-trimethoxybenzoyl)benzo[b]furan], the IC50 is 1200 ± 40 nM in the assay on Tubulin; 3.9 nM in the assay on MCF-7, cancer cell line (setting [2]); 4 nM in the assay with MCF-7, cancer cell line (setting [3]); 1 to 10 nM in assay [1].

For `COc1cc(C(=O)c2c(-c3cnn(C)c3)oc3c(O)c(OC)ccc23)cc(OC)c1OC` [Entry 14, 2-(4-N-Methylpyrazolyl)-3-(3,4,5-trimethoxybenzoyl)-6-methoxy-7-hydroxy-benzofuran], the results for the IC50 (in the assay with Tubulin; in assay [1]) were 1300 ± 70 nM and 0.1 to 1 nM, respectively.

In the case of `COc1cc(C(=O)c2c(-c3cnn(C)c3)oc3c(N)c(OC)ccc23)cc(OC)c1OC` [Entry 21, 7-Amino-6-methoxy-2-(1-methyl-1H-pyrazol-4-yl)-3-(3,4,5-trimethoxybenzoyl)benzo[b]furan], the IC50 in the assay on Tubulin is 1500 ± 100 nM; with MCF-7, cancer cell line (setting [2]) it was below 1 nM; in the assay on MCF-7, cancer cell line (setting [3]), 1.2 nM; in assay [1], 1 to 10 nM.

For the compound `COc1cc(C(=O)c2c(-c3cnn(C)c3)oc3c(OP(=O)([O-])[O-])c(OC)ccc23)cc(OC)c1OC.[Na+].[Na+]` [Entry 23, 2-(4-N-methylpyrazolyl)-3-(3,4,5-trimethoxybenzoyl)-6-methoxy-7-O-disodiumphosphate-benzofuran], in the assay with MDA-MB-231 tumour, the “effect on MDA-MB-231 tumour growth” value is recorded as “effectively inhibited”.

With `COc1cc(C(=O)c2c(-c3ccco3)oc3c(O)c(OC)ccc23)cc(OC)c1OC` [Entry 36, 2-(2-furanyl)-7-hydroxy-6-methoxy-3-(3,4,5-trimethoxybenzoyl)benzo[b]furan], the IC50 in the assay on Tubulin was 8700 ± 800 nM; in assay [1] it was 1 to 10 nM.

Regarding `COc1cc(C(=O)c2c(-c3nccs3)oc3c(O)c(OC)ccc23)cc(OC)c1OC` [Entry 44, 7-Hydroxy-2-(2-thiazolyl)-3-(3,4,5-trimethoxybenzoyl)-6-methoxy-benzo[b]furan], the 50% inhibitory concentration (IC50) with Tubulin is 2200 ± 400 nM; with MCF-7, cancer cell line (setting [2]), 0.37 nM; in the assay on MCF-7, cancer cell line (setting [3]), 0.32 nM; in assay [1] it was 0.1 to 1 nM.

For `COc1cc(C(=O)c2c(-c3cncn3C)oc3c(O)c(OC)ccc23)cc(OC)c1OC` [Entry 59, 7-Hydroxy-6-methoxy-2-(3-methyl-3H-imidazol-4-yl)-3-(3,4,5-trimethoxybenzoyl)-benzo[b]furan], the IC50 (in the assay with MDA-MB-231; in assay [1]) was 1 to 10 nM in each case.

By IC50 is commonly meant the concentration at which inhibition is half-maximal.
